Values of other authors as cited in publication PMC11915035, “Characterization of [^3H]Propionylated Human Peptide YY-A New Probe for Neuropeptide Y Y2 Receptor Binding Studies” (ACS Pharmacology & Translational Science, 2025).
Like-named read-outs stand apart in the source and are kept apart here.

Assays:
pY2R = settings: COS-7 pY2R; 50 mM HEPES, 0 mM Na+; species of peptide not indicated; ref Rose et al.[2]
Source text: (§1) Table 1 Reported Peptidic Radioligands Used for Y2R Binding Studies | column: Kd [nM]

[1] = target: rat hippocampal membrane preparation; settings: KRP buffer, […] Na+; species of peptide not indicated; ref Dumont et al.[25]
Source text: as §1

Y1R, Y2R, Y4R, Y5R = settings: ref 2−4
Source text: Activation of all four receptor subtypes is induced by the homologous neuropeptides NPY, peptide YY (PYY), and pancreatic polypeptide (PP).[1]

[2] = target: calf hippocampus membrane preparation; settings: Krebs–Ringer/20 mM HEPES, 137 mM Na+; species of peptide not indicated; ref Czerwiec et al.[34]
Source text: as §1

Y2R = settings: read-out: literature IC50, sodium-containing buffer

[^125I]NPY: iodine-125 labeled derivative of NPY; species human or not indicated
Kd (pY2R): 0.58 nM

[^125I]PYY (3–36): iodine-125 labeled derivative of PYY
Kd [1]: 0.013 nM

pancreatic polypeptide [PP]
YR binding preference (Y1R, Y2R, Y4R, Y5R): clear preference for Y4R over the other YRs

N-[^3H]propionyl-NPY: tritiated NPY derivative, most likely [^3H]propionylated at the ε-amino group of Lys^4
Kd [2]: 0.7 nM

CCN(CC)C(=O)C(c1ccccc1)N1CCN(c2ccc(NC(=O)c3ccccc3-c3cccnc3)cc2F)CC1 (stereo not shown) [JNJ31020028, N-(4–4-[2-(diethylamino)-2-oxo-1-phenylethyl]piperazin-1-yl-3-fluorophenyl)-2-pyridin-3-ylbenzamide]
IC50 (Y2R; ref Shoblock et al.[39]): 8.5 nM | IC50 (Y2R; ref Swanson et al.[59]): 6 nM

[^125I]PYY: iodine-125 labeled derivative of PYY; species porcine or not indicated
Kd (pY2R): 0.27 nM
